# Reference: US10899737B2, “Piperazine carbamates and methods of making and using same” (Lundbeck La Jolla Research Center, Inc., priority 2016, dated 2021)
# Experiments:
# MAGL [1] = target: T1, MAGL (Homo sapiens, UniProt Q99685); experiment: In vitro competitive activity-based protein profiling (human), MAGL; assay type: biochemical; conditions: for inhibition at 1 µM: 1 μM inhibitor, human proteome, 30 min preincubation at 37° C, read-out: MAGL % inh. 1 μM (human); for IC50: human PC3
# T1 construct: Proteomes (human prefrontal cortex or cell membrane fractions); from tissue
# T1 sequence (Q99685 1-303): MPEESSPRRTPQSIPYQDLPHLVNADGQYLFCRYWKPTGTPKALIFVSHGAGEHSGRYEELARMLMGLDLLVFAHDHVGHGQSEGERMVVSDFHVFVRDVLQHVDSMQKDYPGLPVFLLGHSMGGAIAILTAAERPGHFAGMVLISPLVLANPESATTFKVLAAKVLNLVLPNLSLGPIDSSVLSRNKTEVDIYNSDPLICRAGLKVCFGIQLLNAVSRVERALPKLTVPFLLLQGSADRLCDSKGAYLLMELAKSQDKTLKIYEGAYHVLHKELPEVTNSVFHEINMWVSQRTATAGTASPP
# Procedure: (§1) In Vitro Competitive Activity-Based Protein Profiling (Human).
# (§2) Proteomes (human prefrontal cortex or cell membrane fractions) (50 μL, 1.0-2.0 mg/mL total protein concentration) were preincubated with varying concentrations of inhibitors at 37° C. After 30 min, FP-Rh or JW912 (1.0 μL, 50 μM in DMSO) was added and the mixture was incubated for another 30 min at room temperature. Reactions were quenched with SDS loading buffer (15 μL-4×) and run on SDS-PAGE. Following gel imaging, serine hydrolase activity was determined by measuring fluorescent intensity of gel bands corresponding to MAGL and ABHD6 using ImageJ 1.49 k software.
# ABHD6 [2] = target: T2, ABHD6 (Homo sapiens, UniProt Q9BV23); experiment: In vitro competitive activity-based protein profiling (human), ABHD6; assay type: biochemical; conditions: human PC3
# T2 construct: Proteomes (human prefrontal cortex or cell membrane fractions); endogenous in cells; human prefrontal cortex
# T2 sequence (Q9BV23 1-337): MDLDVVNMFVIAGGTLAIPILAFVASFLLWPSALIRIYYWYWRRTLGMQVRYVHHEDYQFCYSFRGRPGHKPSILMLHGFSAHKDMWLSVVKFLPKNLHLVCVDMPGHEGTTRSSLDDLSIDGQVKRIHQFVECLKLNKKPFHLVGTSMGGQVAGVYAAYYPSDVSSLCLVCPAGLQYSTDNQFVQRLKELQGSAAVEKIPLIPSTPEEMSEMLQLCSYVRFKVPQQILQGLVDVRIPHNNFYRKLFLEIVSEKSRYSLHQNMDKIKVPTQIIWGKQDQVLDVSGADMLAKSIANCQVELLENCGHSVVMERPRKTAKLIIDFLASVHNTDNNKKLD
# Procedure: as §1, §2
# MAGL [3] = target: T3, MAGL (Mus musculus, UniProt O35678); experiment: In vitro competitive activity-based protein profiling (mouse), MAGL; assay type: biochemical; conditions: for inhibition at 1 µM: 1 μM inhibitor, mouse brain membrane fraction or cell lysates, read-out: MAGL % inh. 1 μM (mouse); for IC50: mouse proteome
# T3 construct: Proteomes (mouse brain membrane fraction or cell lysates); from tissue; host or cells: mouse brain membrane fraction or cell lysates
# T3 sequence (O35678 1-303): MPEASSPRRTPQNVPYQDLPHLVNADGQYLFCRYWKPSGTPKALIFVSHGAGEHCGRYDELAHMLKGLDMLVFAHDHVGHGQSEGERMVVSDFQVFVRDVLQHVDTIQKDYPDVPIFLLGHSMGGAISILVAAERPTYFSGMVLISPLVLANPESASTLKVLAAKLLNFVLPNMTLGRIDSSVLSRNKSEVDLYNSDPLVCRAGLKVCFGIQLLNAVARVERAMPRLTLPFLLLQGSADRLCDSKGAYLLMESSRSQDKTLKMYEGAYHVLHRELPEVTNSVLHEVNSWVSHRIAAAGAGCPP
# Procedure: (§3) In Vitro Competitive Activity-Based Protein Profiling (Mouse).
# (§4) Proteomes (mouse brain membrane fraction or cell lysates) (50 μL, 1.0 mg/mL total protein concentration) were preincubated with varying concentrations of inhibitors at 37° C. After 30 min, FP-Rh (1.0 μL, 50 μM in DMSO) was added and the mixture was incubated for another 30 min at 37° C. Reactions were quenched with SDS loading buffer (50 μL-4×) and run on SDS-PAGE. Following gel imaging, serine hydrolase activity was determined by measuring fluorescent intensity of gel bands corresponding to MAGL and ABHD6 using ImageJ 1.49 k software. Data from this assay is shown in Table 1 (% inhibition at 1 μM).
# ABHD6 [4] = target: T4, ABHD6 (Mus musculus, UniProt Q8R2Y0); experiment: In vitro competitive activity-based protein profiling (mouse), ABHD6; assay type: biochemical; conditions: 1 μM inhibitor, mouse brain membrane fraction or cell lysates; read-out: ABHD6 % inh. 1 μM (mouse)
# T4 construct: Proteomes (mouse brain membrane fraction or cell lysates); from tissue; host or cells: mouse brain membrane fraction or cell lysates
# T4 sequence (Q8R2Y0 1-336): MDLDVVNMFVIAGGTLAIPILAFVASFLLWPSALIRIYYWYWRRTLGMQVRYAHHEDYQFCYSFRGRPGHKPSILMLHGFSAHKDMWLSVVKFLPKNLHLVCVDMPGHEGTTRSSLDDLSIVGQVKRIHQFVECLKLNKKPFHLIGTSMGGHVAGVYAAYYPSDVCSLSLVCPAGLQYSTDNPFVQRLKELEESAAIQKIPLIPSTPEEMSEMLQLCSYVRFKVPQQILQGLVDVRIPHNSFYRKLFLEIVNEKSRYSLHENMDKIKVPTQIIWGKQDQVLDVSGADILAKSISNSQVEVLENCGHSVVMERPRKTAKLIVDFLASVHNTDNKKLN
# Procedure: as §3, §4
# MAGL [5] = target: T3, MAGL; experiment: Mouse brain proteomes from inhibitor treated mice, MAGL inhibition; assay type: in vivo; conditions: 5 mg/kg oral gavage, C57Bl/6J mouse brain, 4 h following administration; read-out: MAGL % inh. 5 mg/kg (mouse)
# Procedure: Preparation of Mouse Brain Proteomes from Inhibitor Treated Mice.
# Inhibitors were administered to wild-type C57Bl/6J by oral gavage in a vehicle of polyethylene glycol. Each animal was sacrificed 4 h following administration and brain proteomes were prepared and analyzed according to previously established methods (See Niphakis, M. J., et al. (2011) ACS Chem. Neurosci. and Long, J. Z., et al. Nat. Chem. Biol. 5:37-44).
SMILES,inhibition at 1 µM (MAGL [1]),IC50 (MAGL [1]),IC50 (ABHD6 [2]),inhibition at 1 µM (MAGL [3]),IC50 (MAGL [3]),inhibition at 1 µM (ABHD6 [4]),inhibition at 5 mg/kg (MAGL [5])
"O=C(O)CN1CC2(CCN(c3cc(Cl)ccc3CN3CCN(C(=O)OC(C(F)(F)F)C(F)(F)F)CC3)CC2)C1 [Example 47, 2-(7-(5-chloro-2-((4-(((1,1,1,3,3,3-hexafluoropropan-2-yl)oxy)carbonyl)piperazin-1-yl)methyl)phenyl)-2,7-diazaspiro[3.5]nonan-2-yl)acetic acid]",≥ 75%,≤ 0.1 µM,1 to 10 µM,≥ 75%,≤ 0.1 µM,0 to 25%,
"O=C(O)[C@H]1CCCN(c2cc(C(F)(F)F)ccc2CN2CCN(C(=O)OC(C(F)(F)F)C(F)(F)F)CC2)C1 [Example 80, (S)-1-(2-((4-(((1,1,1,3,3,3-hexafluoropropan-2-yl)oxy)carbonyl)piperazin-1-yl)methyl)-5-(trifluoromethyl)phenyl)piperidine-3-carboxylic acid]",≥ 75%,≤ 0.1 µM,0.1 to 1 µM,≥ 75%,,25 to 50%,
"O=C(O)CN1CCN(C(=O)c2cc(C(F)(F)F)ccc2CN2CCN(C(=O)OC(C(F)(F)F)C(F)(F)F)CC2)CC1 [Example 28, 2-(4-(2-((4-(((1,1,1,3,3,3-Hexafluoropropan-2-yl)oxy)carbonyl)piperazin-1-yl)methyl)-5-(trifluoromethyl)benzoyl)piperazin-1-yl)acetic Acid]",≥ 75%,0.1 to 1 µM,1 to 10 µM,≥ 75%,,25 to 50%,
"CC(C)(C(=O)O)N1CC2CN(c3cc(C(F)(F)F)ccc3CN3CCN(C(=O)OC(C(F)(F)F)C(F)(F)F)CC3)CC2C1 (centres unmarked) [Example 16, 2-(5-(2-((4-(((1,1,1,3,3,3-Hexafluoropropan-2-yl)oxy)carbonyl)piperazin-1-yl)methyl)-5-(trifluoromethyl)phenyl)hexahydropyrrolo[3,4-c]pyrrol-2(1H)-yl)-2-methylpropanoic Acid]",≥ 75%,≤ 0.1 µM,1 to 10 µM,≥ 75%,,0 to 25%,
"O=C(O)CN1CCCC1C1CCN(c2cc(Cl)ccc2CN2CCN(C(=O)OC(C(F)(F)F)C(F)(F)F)CC2)CC1 (centres unmarked) [Example 34, 2-(2-(1-(5-Chloro-2-((4-(((1,1,1,3,3,3-hexafluoropropan-2-yl)oxy)carbonyl)piperazin-1-yl)methyl)phenyl)piperidin-4-yl)pyrrolidin-1-yl)acetic Acid]",≥ 75%,≤ 0.1 µM,1 to 10 µM,≥ 75%,,50 to 75%,
"Cc1ccc(CN2CCN(C(=O)OC(C(F)(F)F)C(F)(F)F)CC2)c(C2(C(=O)O)CCCC2)c1 [Example 14, 1-(2-((4-(((1,1,1,3,3,3-Hexafluoropropan-2-yl)oxy)carbonyl)piperazin-1-yl)methyl)-5-methylphenyl)cyclopentane-1-carboxylic Acid]",≥ 75%,≤ 0.1 µM,1 to 10 µM,≥ 75%,,0 to 25%,
O=C(O)CN1CCN(c2cc(C(F)(F)F)ccc2CN2CCN(C(=O)OC(C(F)(F)F)C(F)(F)F)CC2)CC1 [Example 42],≥ 75%,,,≥ 75%,≤ 0.1 µM,0 to 25%,25 to 50%
"CC1(C(=O)O)CCCN(c2cc(CN3CCN(C(=O)OC(C(F)(F)F)C(F)(F)F)CC3)cc(C(F)(F)F)c2)C1 (centres unmarked) [Example 56, 1-(3-((4-(((1,1,1,3,3,3-hexafluoropropan-2-yl)oxy)carbonyl)piperazin-1-yl)methyl)-5-(trifluoromethyl)phenyl)-3-methylpiperidine-3-carboxylic acid]",≥ 75%,≤ 0.1 µM,≤ 0.1 µM,≥ 75%,,0 to 25%,

# The next lines start with the values.
inhibition at 1 µM (MAGL [1]),IC50 (MAGL [1]),IC50 (ABHD6 [2]),inhibition at 1 µM (MAGL [3]),IC50 (MAGL [3]),inhibition at 1 µM (ABHD6 [4]),inhibition at 5 mg/kg (MAGL [5]),SMILES
≥ 75%,≤ 0.1 µM,1 to 10 µM,≥ 75%,≤ 0.1 µM,≥ 75%,0 to 25%,"O=C(O)Cn1cc(-c2cc(C(F)(F)F)ccc2CN2CCN(C(=O)OC(C(F)(F)F)C(F)(F)F)CC2)cn1 [Example 6, 2-(4-(2-((4-(((1,1,1,3,3,3-Hexafluoropropan-2-yl)oxy)carbonyl)piperazin-1-yl)methyl)-5-(trifluoromethyl)phenyl)-1H-pyrazol-1-yl)acetic Acid]"
≥ 75%,≤ 0.1 µM,0.1 to 1 µM,≥ 75%,≤ 0.1 µM,≥ 75%,0 to 25%,"O=C(O)Cn1ccc(-c2cc(C(F)(F)F)ccc2CN2CCN(C(=O)OC(C(F)(F)F)C(F)(F)F)CC2)n1 [Example 3, 2-(3-(2-((4-(((1,1,1,3,3,3-Hexafluoropropan-2-yl)oxy)carbonyl)piperazin-1-yl)methyl)-5-(trifluoromethyl)phenyl)-1H-pyrazol-1-yl)acetic Acid]"
≥ 75%,≤ 0.1 µM,0.1 to 1 µM,≥ 75%,,≥ 75%,0 to 25%,"CCC(C(=O)O)n1cc(-c2cc(C(F)(F)F)ccc2CN2CCN(C(=O)OC(C(F)(F)F)C(F)(F)F)CC2)cn1 (centres unmarked) [Example 5, 2-(4-(2-((4-(((1,1,1,3,3,3-Hexafluoropropan-2-yl)oxy)carbonyl)piperazin-1-yl)methyl)-5-(trifluoromethyl)phenyl)-1H-pyrazol-1-yl)butanoic Acid]"
≥ 75%,≤ 0.1 µM,1 to 10 µM,≥ 75%,≤ 0.1 µM,50 to 75%,≥ 75%,"O=C(O)C1CCN(c2cc(OC(F)(F)F)ccc2CN2CCN(C(=O)OC(C(F)(F)F)C(F)(F)F)CC2)CC1 [Example 67, 1-(2-((4-(((1,1,1,3,3,3-hexafluoropropan-2-yl)oxy)carbonyl)piperazin-1-yl)methyl)-5-(trifluoromethoxy)phenyl)piperidine-4-carboxylic acid]"
≥ 75%,≤ 0.1 µM,0.1 to 1 µM,≥ 75%,,0 to 25%,0 to 25%,"O=C(O)Cn1ccc(-c2cc(Cl)ccc2CN2CCN(C(=O)OC(C(F)(F)F)C(F)(F)F)CC2)n1 [Example 12, 2-(3-(5-Chloro-2-((4-(((1,1,1,3,3,3-hexafluoropropan-2-yl)oxy)carbonyl)piperazin-1-yl)methyl)phenyl)-1H-pyrazol-1-yl)acetic Acid]"
